These compounds were tested on Digitaria sanguinalis (assay: Weeding effect in post-emergence stage). Conditions: Dose 15 g/ha; fresh weight control rate level.
Format: in vivo
In short: (§1)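 Post-emergence spray tower; 2-3 leaf plants (2 wk after sowing, soil pots, greenhouse). Formulation: acetone, Tween 80, methyl oleate EC 1.5 liter/ha as synergist, water. Rates 500–7.5 g/ha. Growth control rate read at 3 wk; n=3, averaged.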

SMILES | Weeding effect in post-emergence stage, Digitaria sanguinalis (level)
COC(=O)C(C)(C)O/N=C/c1cc(-n2c(=O)cc(C(F)(F)F)n(C)c2=O)c(F)cc1Cl [Compound 433] | 5 (Level 5: growth control rate is above 85%)

Same assay, conditions: Dose 15 g/ha; level of fresh weight growth control rate

SMILES | Weeding effect in post-emergence stage, Digitaria sanguinalis
COC(=O)[C@@H](C)O/N=C/c1cc(-n2c(=S)cc(C(F)(F)F)n(C)c2=O)c(F)cc1Cl [349(R)] | 5 (Level 5: growth control rate is above 85%)

Each compound was assayed on Abutilon theophrasti (assay: Weeding effect in post-emergence stage). Conditions: Dose 15 g/ha; fresh weight control rate level.
Format: in vivo
In short: as §1

SMILES | Weeding effect in post-emergence stage, Abutilon theophrasti (level)
COC(=O)C(C)(C)O/N=C/c1cc(-n2c(=O)cc(C(F)(F)F)n(C)c2=O)c(F)cc1Cl [Compound 433] | 5 (Level 5: growth control rate is above 85%)

Same assay, conditions: Dose 15 g/ha; level of fresh weight growth control rate

SMILES | Weeding effect in post-emergence stage, Abutilon theophrasti
COC(=O)[C@@H](C)O/N=C/c1cc(-n2c(=S)cc(C(F)(F)F)n(C)c2=O)c(F)cc1Cl [349(R)] | 5 (Level 5: growth control rate is above 85%)

The compounds below were run on Eleusine indica (assay: Weeding effect in post-emergence stage). Conditions: Dose 15 g/ha; fresh weight control rate level.
Format: in vivo
In short: as §1

SMILES | Weeding effect in post-emergence stage, Eleusine indica (level)
COC(=O)C(C)(C)O/N=C/c1cc(-n2c(=O)cc(C(F)(F)F)n(C)c2=O)c(F)cc1Cl [Compound 433] | 5 (Level 5: growth control rate is above 85%)

Same assay, conditions: Dose 15 g/ha; level of fresh weight growth control rate

SMILES | Weeding effect in post-emergence stage, Eleusine indica
COC(=O)[C@@H](C)O/N=C/c1cc(-n2c(=S)cc(C(F)(F)F)n(C)c2=O)c(F)cc1Cl [349(R)] | 5 (Level 5: growth control rate is above 85%)

The compounds below were run on Setaria viridis (assay: Weeding effect in post-emergence stage). Conditions: Dose 15 g/ha; fresh weight control rate level.
Format: in vivo
In short: as §1

SMILES | Weeding effect in post-emergence stage, Setaria viridis (level)
COC(=O)C(C)(C)O/N=C/c1cc(-n2c(=O)cc(C(F)(F)F)n(C)c2=O)c(F)cc1Cl [Compound 433] | 5 (Level 5: growth control rate is above 85%)

Same assay, conditions: Dose 15 g/ha; level of fresh weight growth control rate

SMILES | Weeding effect in post-emergence stage, Setaria viridis
COC(=O)[C@@H](C)O/N=C/c1cc(-n2c(=S)cc(C(F)(F)F)n(C)c2=O)c(F)cc1Cl [349(R)] | 5 (Level 5: growth control rate is above 85%)

These compounds were tested on Alopecurus japonicus (assay: Weeding effect in post-emergence stage). Conditions: Dose 15 g/ha; fresh weight control rate level.
Format: in vivo
In short: as §1

SMILES | Weeding effect in post-emergence stage, Alopecurus japonicus (level)
COC(=O)C(C)(C)O/N=C/c1cc(-n2c(=O)cc(C(F)(F)F)n(C)c2=O)c(F)cc1Cl [Compound 433] | 5 (Level 5: growth control rate is above 85%)

Same assay, conditions: Dose 15 g/ha; level of fresh weight growth control rate

SMILES | Weeding effect in post-emergence stage, Alopecurus japonicus
COC(=O)[C@@H](C)O/N=C/c1cc(-n2c(=S)cc(C(F)(F)F)n(C)c2=O)c(F)cc1Cl [349(R)] | 5 (Level 5: growth control rate is above 85%)

These compounds were tested on cotton (assay: Pre-emergence stage, crop selectivity). Conditions: 30 g/ha, 4 weeks.
Format: in vivo
In short: (§2)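 Pots were kept in the greenhouse for 4 weeks and then rated for growth control on activity-level criteria. Spraying took place immediately after sowing at application rates of 500 to 7.5 g/ha, using an acetone/tween 80 formulation diluted with water, on seeds under 0.5-2 cm of soil.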

SMILES | plant damage level Cotton
COC(=O)[C@@H](C)O/N=C/c1cc(-n2c(=S)cc(C(F)(F)F)n(C)c2=O)c(F)cc1Cl [349(R)] | 0 (Level 0: growth control rate is less than 5%)
COC(=O)C(C)(C)O/N=C/c1cc(-n2c(=O)cc(C(F)(F)F)n(C)c2=O)c(F)cc1Cl [Compound 433] | 0 (Level 0: growth control rate is less than 5%)

These compounds were tested on Soybeans (assay: Pre-emergence stage, crop selectivity). Conditions: 30 g/ha, 4 weeks.
Format: in vivo
In short: as §2

SMILES | plant damage level Soybeans
COC(=O)[C@@H](C)O/N=C/c1cc(-n2c(=S)cc(C(F)(F)F)n(C)c2=O)c(F)cc1Cl [349(R)] | 0 (Level 0: growth control rate is less than 5%)
COC(=O)C(C)(C)O/N=C/c1cc(-n2c(=O)cc(C(F)(F)F)n(C)c2=O)c(F)cc1Cl [Compound 433] | 0 (Level 0: growth control rate is less than 5%)

The compounds below were run on corn (assay: Pre-emergence stage, crop selectivity). Conditions: 30 g/ha, 4 weeks.
Format: in vivo
In short: as §2

SMILES | plant damage level Corn
COC(=O)[C@@H](C)O/N=C/c1cc(-n2c(=S)cc(C(F)(F)F)n(C)c2=O)c(F)cc1Cl [349(R)] | 0 (Level 0: growth control rate is less than 5%)
COC(=O)C(C)(C)O/N=C/c1cc(-n2c(=O)cc(C(F)(F)F)n(C)c2=O)c(F)cc1Cl [Compound 433] | 0 (Level 0: growth control rate is less than 5%)

These compounds were tested on Peanut (assay: Pre-emergence stage, crop selectivity). Conditions: 30 g/ha, 4 weeks.
Format: in vivo
In short: as §2

SMILES | plant damage level Peanut
COC(=O)[C@@H](C)O/N=C/c1cc(-n2c(=S)cc(C(F)(F)F)n(C)c2=O)c(F)cc1Cl [349(R)] | 0 (Level 0: growth control rate is less than 5%)
COC(=O)C(C)(C)O/N=C/c1cc(-n2c(=O)cc(C(F)(F)F)n(C)c2=O)c(F)cc1Cl [Compound 433] | 0 (Level 0: growth control rate is less than 5%)

These compounds were tested on Echinochloa crusgalli (assay: Weeding effect in post-emergence stage). Conditions: Dose 15 g/ha; fresh weight control rate level.
Format: in vivo
In short: as §1

SMILES | Weeding effect in post-emergence stage, Echinochloa crusgalli (level)
COC(=O)C(C)(C)O/N=C/c1cc(-n2c(=O)cc(C(F)(F)F)n(C)c2=O)c(F)cc1Cl [Compound 433] | 5 (Level 5: growth control rate is above 85%)

Same assay, conditions: Dose 15 g/ha; level of fresh weight growth control rate

SMILES | Weeding effect in post-emergence stage, Echinochloa crusgalli
COC(=O)[C@@H](C)O/N=C/c1cc(-n2c(=S)cc(C(F)(F)F)n(C)c2=O)c(F)cc1Cl [349(R)] | 5 (Level 5: growth control rate is above 85%)

What follows are compounds tested on Amaranthus retroflexus (assay: Weeding effect in pre-emergence stage). Conditions: 30 g/ha, 4 weeks.
Format: in vivo
In short: as §2

SMILES | activity level (growth control rate) Amaranthus retroflexus
COC(=O)[C@@H](C)O/N=C/c1cc(-n2c(=S)cc(C(F)(F)F)n(C)c2=O)c(F)cc1Cl [349(R)] | 5 (Level 5: growth control rate is above 85%)
COC(=O)C(C)(C)O/N=C/c1cc(-n2c(=O)cc(C(F)(F)F)n(C)c2=O)c(F)cc1Cl [Compound 433] | 5 (Level 5: growth control rate is above 85%)

These compounds were tested on Capsella bursa-pastoris (assay: Weeding effect in pre-emergence stage). Conditions: 30 g/ha, 4 weeks.
Format: in vivo
In short: as §2

SMILES | activity level (growth control rate) Capsella bursa-pastoris
COC(=O)[C@@H](C)O/N=C/c1cc(-n2c(=S)cc(C(F)(F)F)n(C)c2=O)c(F)cc1Cl [349(R)] | 5 (Level 5: growth control rate is above 85%)
COC(=O)C(C)(C)O/N=C/c1cc(-n2c(=O)cc(C(F)(F)F)n(C)c2=O)c(F)cc1Cl [Compound 433] | 5 (Level 5: growth control rate is above 85%)

Each compound was assayed on Descurainia sophia (assay: Weeding effect in pre-emergence stage). Conditions: 30 g/ha, 4 weeks.
Format: in vivo
In short: as §2

SMILES | activity level (growth control rate) Descurainia sophia
COC(=O)[C@@H](C)O/N=C/c1cc(-n2c(=S)cc(C(F)(F)F)n(C)c2=O)c(F)cc1Cl [349(R)] | 5 (Level 5: growth control rate is above 85%)
COC(=O)C(C)(C)O/N=C/c1cc(-n2c(=O)cc(C(F)(F)F)n(C)c2=O)c(F)cc1Cl [Compound 433] | 5 (Level 5: growth control rate is above 85%)

These compounds were tested on Veronica didyma Tenore (assay: Weeding effect in pre-emergence stage). Conditions: 30 g/ha, 4 weeks.
Format: in vivo
In short: as §2

SMILES | activity level (growth control rate) Veronica didyma Tenore
COC(=O)[C@@H](C)O/N=C/c1cc(-n2c(=S)cc(C(F)(F)F)n(C)c2=O)c(F)cc1Cl [349(R)] | 5 (Level 5: growth control rate is above 85%)
COC(=O)C(C)(C)O/N=C/c1cc(-n2c(=O)cc(C(F)(F)F)n(C)c2=O)c(F)cc1Cl [Compound 433] | 5 (Level 5: growth control rate is above 85%)

These compounds were tested on Abutilon theophrasti (assay: Weeding effect in pre-emergence stage). Conditions: 30 g/ha, 4 weeks.
Format: in vivo
In short: as §2

SMILES | activity level (growth control rate) Abutilon theophrasti
COC(=O)[C@@H](C)O/N=C/c1cc(-n2c(=S)cc(C(F)(F)F)n(C)c2=O)c(F)cc1Cl [349(R)] | 5 (Level 5: growth control rate is above 85%)
COC(=O)C(C)(C)O/N=C/c1cc(-n2c(=O)cc(C(F)(F)F)n(C)c2=O)c(F)cc1Cl [Compound 433] | 5 (Level 5: growth control rate is above 85%)

What follows are compounds tested on Setaria viridis (assay: Weeding effect in pre-emergence stage). Conditions: 30 g/ha, 4 weeks.
Format: in vivo
In short: as §2

SMILES | activity level (growth control rate) Setaria viridis
COC(=O)[C@@H](C)O/N=C/c1cc(-n2c(=S)cc(C(F)(F)F)n(C)c2=O)c(F)cc1Cl [349(R)] | 5 (Level 5: growth control rate is above 85%)
COC(=O)C(C)(C)O/N=C/c1cc(-n2c(=O)cc(C(F)(F)F)n(C)c2=O)c(F)cc1Cl [Compound 433] | 5 (Level 5: growth control rate is above 85%)

Each compound was assayed on Eclipta prostrate (assay: Composition activity test, post-emergence foliage spray). Conditions: Eclipta prostrate; foliage; B 60 g a.i./ha.
Format: in vivo
Method: are as follows, and the others were purchased from reagent companies. The technical materials were all dissolved in acetone and diluted with an aqueous solution containing 0.1% emulsifier Tween-80. The dilution is performed as required.
Weeds were cultivated by a pot culture method. […] Full and uniform weed seeds were selected, soaked in warm water at 25° C. for 6 hours, and germinated in a 28° C. biochemical incubator (darkness). The weed seeds that had just germinated were evenly placed on the surface of the soil and then covered with 0.5-1 cm soil according to the sizes of seeds.
The culture was carried out in a controllable sunlight greenhouse at 20 to 30° C., in natural light, and relative humidity of 57% to 72%.
3 pots with 20 weed seeds per pot were treated in one treatment with 4 replications per treatment.
The agents were used for only once in the experiment. In the stage of weeds with 1.5-2 leaves, the weeds were thinned out to maintain 10 weeds per pot and 30 weeds for each treatment, then continued to be cultured to Conyza Canadensis 10 cm in height, other weeds 3-4 leaves stage and treated.
The well-cultured weeds were evenly placed on a platform with an area of 0.5 m^2, and a solution of agents was sprayed on the stems and leaves thereof by the 3WP-2000-type walking spray tower at a dosage of 450 kg/ha and at a spray pressure of 0.3 MPa. After all the solution was sprayed, the valve was closed. After 30 seconds, the door of the spray tower was opened, and the nutritional bowl was taken out. Then the valve was opened, and the spray tube was cleaned by spraying 50 ml of water. After the treatment, the weeds were routinely cultured in a greenhouse.
A method for investigating absolute number was employed, wherein whole seedlings of survival weeds were cut off with a blade along the soil surface, and the fresh weight of the weeds was weighed with an analytical balance. For dead weeds, the fresh weight thereof was zero.
The investigation was performed after 21 days of the treatment for only once.
An optimum ratio of the two active ingredients was determined by the actual control effect, characteristics of herbicides, and balance of a corresponding formula. Wherein, in the formula, X represented the fresh weight inhibition rate of the active ingredient A in a dosage of P, and Y represented the fresh weight inhibition rate of the active ingredient B in a dosage of Q. The statistical results were shown in the table 6.

SMILES | Control effect (%) of B applied alone (B)
CC(C)c1nn(C(=O)NC(C)(C)C)c(=O)n1N [amicarbazone] | 43.7%

From US20230111310A1, “CARBOXYLIC ACID DERIVATIVE-SUBSTITUTED IMINO ARYL COMPOUND, PREPARATION METHOD THEREFOR, HERBICIDAL COMPOSITION AND USE THEREOF” (Qingdao Kingagroot Chemical Compound Co., Ltd., priority 2020, published 2023)
